Assays:
[1] = tested on: Rabbit Psoas myofibrils (skeletal myosin ATPase); test: Myofibril ATPase assay, rabbit psoas (skeletal) myofibrils; assay type: biochemical
Method in brief: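 Readout: A340 decline from NADH oxidation, PK/LDH-coupled to ADP release; kinetic reads over 75 min. Buffer: pCa (PIPES, CaCl2, EGTA), pH 7.0. Linear-regression slopes vs vehicle, 4PL fit; reported as concentration giving 75% (Y75) or 125% (Y125) of vehicle activity.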

[2] = tested on: Porcine atria myofibrils (atrial myosin ATPase); test: Myofibril ATPase assay, porcine atria myofibrils; assay type: biochemical
Method in brief: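 Coupled PK-LDH readout, NADH loss at 340 nm, kinetic 75 min. Porcine atria myofibrils, pCa buffer (PIPES/CaCl2/EGTA, pH 7.0). Slopes (mAU/min) normalized to vehicle = 100%, 4-parameter fit; Y75 or Y125 reported.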

[3] = target: T1, Porcine ventricle myofibrils (ventricular myosin ATPase) (Sus scrofa, UniProt P79293); test: Myofibril ATPase assay, porcine ventricle myofibrils; assay type: biochemical, porcine (Yucatan minipigs)
T1 construct: Myofibrils from porcine cardiac muscle was isolated from the left ventricle of Yucatan minipigs; tissue Exemplar Genetics; host or cells: left ventricle of Yucatan minipigs, myofibrils prepared in house
Method in brief: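 Read-out: A340 kinetic, NADH consumption coupled to ADP via PK-LDH, 75 min. Yucatan minipig LV myofibrils, pCa buffer (PIPES/CaCl2/EGTA, pH 7.0). Linear-regression slope (mAU/min), vehicle = 100%, 4PL fit; Y75 or Y125 reported.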

[4] = Y75 value (no ‡ mark), rabbit psoas myofibrils
[5] = Y75 value (no ‡ mark), porcine atria myofibrils
[6] = Y75 value (no ‡ mark), porcine ventricle myofibrils
[7] = rabbit psoas myofibrils, Y75 value
[8] = porcine atria myofibrils, Y75 value (75% activity relative to no compound)
[9] = porcine ventricle myofibrils, Y75 value
[10] = ‡ Y125 value, not a Y75 value (125% activity relative to no compound), rabbit psoas myofibrils
[11] = ‡ Y125 value, not a Y75 value (125% activity relative to no compound), porcine atria myofibrils
[12] = ‡ Y125 value, not a Y75 value (125% activity relative to no compound), porcine ventricle myofibrils

T1 sequence (P79293 whole entry): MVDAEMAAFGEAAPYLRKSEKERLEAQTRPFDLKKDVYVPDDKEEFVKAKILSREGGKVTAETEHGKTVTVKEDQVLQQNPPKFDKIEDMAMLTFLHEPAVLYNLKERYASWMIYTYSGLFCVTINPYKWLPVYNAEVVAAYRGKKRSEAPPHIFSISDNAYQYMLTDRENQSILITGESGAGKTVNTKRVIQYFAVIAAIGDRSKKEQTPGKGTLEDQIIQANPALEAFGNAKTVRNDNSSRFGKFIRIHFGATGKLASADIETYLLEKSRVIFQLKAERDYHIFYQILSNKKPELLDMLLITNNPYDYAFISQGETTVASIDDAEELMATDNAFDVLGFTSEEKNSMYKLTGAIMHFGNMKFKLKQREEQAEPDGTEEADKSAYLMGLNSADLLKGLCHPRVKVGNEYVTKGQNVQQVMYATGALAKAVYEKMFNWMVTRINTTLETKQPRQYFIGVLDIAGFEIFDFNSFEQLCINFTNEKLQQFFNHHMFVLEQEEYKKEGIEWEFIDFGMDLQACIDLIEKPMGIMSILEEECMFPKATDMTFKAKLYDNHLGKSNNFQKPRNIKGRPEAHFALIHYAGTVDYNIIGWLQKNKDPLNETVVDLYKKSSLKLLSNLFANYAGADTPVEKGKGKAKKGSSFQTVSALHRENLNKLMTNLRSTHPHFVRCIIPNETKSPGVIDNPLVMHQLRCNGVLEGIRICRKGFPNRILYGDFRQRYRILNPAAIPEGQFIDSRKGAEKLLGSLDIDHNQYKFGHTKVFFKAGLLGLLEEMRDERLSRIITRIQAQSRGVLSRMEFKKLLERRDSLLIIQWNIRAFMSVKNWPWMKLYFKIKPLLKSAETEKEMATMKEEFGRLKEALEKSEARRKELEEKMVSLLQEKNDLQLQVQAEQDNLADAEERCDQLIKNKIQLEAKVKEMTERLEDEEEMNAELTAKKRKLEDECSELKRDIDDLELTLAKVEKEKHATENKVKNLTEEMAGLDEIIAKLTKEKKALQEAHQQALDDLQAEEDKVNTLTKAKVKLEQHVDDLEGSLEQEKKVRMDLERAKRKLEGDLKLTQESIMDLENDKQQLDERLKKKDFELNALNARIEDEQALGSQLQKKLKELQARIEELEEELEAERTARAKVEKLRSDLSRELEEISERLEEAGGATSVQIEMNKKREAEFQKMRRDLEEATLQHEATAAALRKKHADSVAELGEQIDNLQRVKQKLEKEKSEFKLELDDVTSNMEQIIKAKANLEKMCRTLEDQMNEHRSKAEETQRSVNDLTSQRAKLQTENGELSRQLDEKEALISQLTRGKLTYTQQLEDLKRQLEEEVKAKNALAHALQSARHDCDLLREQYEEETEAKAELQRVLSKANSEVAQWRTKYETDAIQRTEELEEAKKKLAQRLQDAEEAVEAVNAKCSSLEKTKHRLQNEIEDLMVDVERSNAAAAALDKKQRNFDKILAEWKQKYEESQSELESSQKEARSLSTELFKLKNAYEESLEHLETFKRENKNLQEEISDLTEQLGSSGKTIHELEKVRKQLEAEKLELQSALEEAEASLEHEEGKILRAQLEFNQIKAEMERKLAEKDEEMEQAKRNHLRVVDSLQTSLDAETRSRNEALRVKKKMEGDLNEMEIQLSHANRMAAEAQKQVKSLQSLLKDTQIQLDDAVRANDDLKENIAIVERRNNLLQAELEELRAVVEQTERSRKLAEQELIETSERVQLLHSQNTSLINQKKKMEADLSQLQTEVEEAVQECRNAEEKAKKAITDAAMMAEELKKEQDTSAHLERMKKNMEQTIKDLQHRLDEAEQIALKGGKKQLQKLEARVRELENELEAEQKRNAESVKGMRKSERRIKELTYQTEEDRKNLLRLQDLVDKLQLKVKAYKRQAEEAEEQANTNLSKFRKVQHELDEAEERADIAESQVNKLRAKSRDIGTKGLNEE

Row | SMILES | Skeletal EC25 [1, 4] [µM] | Atrial EC25 [2, 5] [µM] | Ventricular EC25 [3, 6] [µM] | Skeletal EC25 [1, 7] [µM] | Atrial EC25 [2, 8] [µM] | Ventricular EC25 [3, 9] [µM] | other results
1 | C[C@H](NC(=O)[C@H](C)c1cc2c(Cl)c(O)ccc2[nH]c1=O)c1ccc(F)cc1F (single isomer, unassigned) [compound 86] | 100.00 | 100.00 | 100.00 | – | – | – | –
2 | Cc1c(CC(=O)N[C@@H](C)c2ncc(C#N)cc2F)c(=O)[nH]c2ccnc(C(F)(F)F)c12 (single isomer, unassigned) [compound 227] | – | – | – | 0.07 | 0.09 | 0.62 | –
3 | Cc1c(C2(C(=O)N[C@@H](C)c3cc(C#N)ccn3)CC2)c(=O)[nH]c2ccc(F)cc12 (single isomer, unassigned) [compound 2578] | – | – | – | – | – | – | Skeletal EC25 [1, 10]: 100.00‡ μM; Atrial EC25 [2, 11]: 100.00‡ μM; Ventricular EC25 [3, 12]: 100.00‡ μM
4 | C[C@@H](NC(=O)Cc1c(C2CC2)c2cnccc2[nH]c1=O)c1ncc(C#N)cc1F [compound 142] | – | – | – | 100.00 | 100.00 | 100.00 | –
5 | Cc1c(CC(=O)N[C@H](CO)c2ncc(C#N)cc2F)c(=O)[nH]c2ccnc(C#N)c12 (single isomer, unassigned) [compound 245] | – | – | – | 0.93 | 8.37 | 9.46 | –
6 | C[C@@H](NC(=O)C(F)(F)c1cc2c(C#N)c(F)ccc2[nH]c1=O)c1ncc(C#N)cc1F (single isomer, unassigned) [Compound 2529] | 0.24 | 0.24 | 0.35 | – | – | – | –
7 | Cc1nccc2[nH]c(=O)c(CC(=O)N[C@@H](C)c3cccc(O)n3)c(C)c12 (single isomer, unassigned) [compound 298] | – | – | – | 100.00 | 100.00 | 100.00 | –
8 | Cc1nccc2[nH]c(=O)c(CC(=O)N[C@@H](C)c3ccc(C#N)cc3F)c(C#N)c12 [compound 154] | – | – | – | 0.04 | 0.18 | 0.54 | –
9 | Cc1c(CC(=O)N[C@@H](CO)c2ncc(C#N)cc2F)c(=O)[nH]c2ccnc(C#N)c12 (single isomer, unassigned) [compound 246] | – | – | – | 0.03 | 0.13 | 0.15 | –
10 | Cc1c(CC(=O)N[C@H](CO)c2ccc(F)cc2F)c(=O)[nH]c2ccc(C(F)(F)F)nc12 [compound 216] | – | – | – | 100.00 | 100.00 | 100.00 | –
11 | C[C@@H](NC(=O)Cc1cc2c(F)c(F)ccc2[nH]c1=O)c1nc(C#N)co1 (single isomer, unassigned) [compound 4006] | – | – | – | – | – | – | Skeletal EC25 ([1]; Y75 value: concentration required to reduce myosin ATP-ase activity by 25%, Rabbit Psoas Prep pCa 25 GEOM_MEAN): 1.11 µM; Atrial EC25 ([2]; Y75 value: concentration required to reduce myosin ATP-ase activity by 25%, Porcine Atria Prep pCa 25 GEOM_MEAN): 0.74 µM; Ventricular EC25 ([3]; Y75 value: concentration required to reduce myosin ATP-ase activity by 25%, Porcine Ventricle Prep pCa 25 GEOM_MEAN): 6.66 µM
12 | COc1ccccc1[C@H](C)NC(=O)Cc1c(C)c2c(C)nccc2[nH]c1=O (single isomer, unassigned) [compound 319] | – | – | – | 100.00 | 100.00 | 100.00 | –
13 | C[C@H](NC(=O)Cc1cc2c(F)cccc2[nH]c1=O)c1ccc(C#N)cn1 [compound 48] | 0.23 | 1.55 | 4.14 | – | – | – | –
14 | CC(C(=O)N[C@@H](C)c1ccc(F)cc1F)c1cc2c(Br)cccc2[nH]c1=O (stereo partly drawn) [compound 94] | 0.22 | 6.81 | 100.00 | – | – | – | –
15 | CC(NC(=O)C1(c2cc3c(F)c(F)ccc3[nH]c2=O)CC1)c1cccc(C#N)n1 (single isomer, unassigned) [Compound 2570] | – | – | – | – | – | – | Skeletal EC25 [1, 10]: 26.03‡ μM; Atrial EC25 [2, 11]: 100.00‡ μM; Ventricular EC25 [3, 12]: 63.85‡ μM

More lines, main results first:

Row | Skeletal EC25 [1, 4] [µM] | Atrial EC25 [2, 5] [µM] | Ventricular EC25 [3, 6] [µM] | Skeletal EC25 [1, 7] [µM] | Atrial EC25 [2, 8] [µM] | Ventricular EC25 [3, 9] [µM] | SMILES | other results
16 | 0.33 | 0.23 | 0.33 | – | – | – | Cc1c(C(F)(F)C(=O)N[C@H](C)c2ncc(C#N)cn2)c(=O)[nH]c2ccc(F)cc12 (single isomer, unassigned) [compound 2594] | –
17 | – | – | – | 7.32 | 4.03 | 16.67 | Cc1nccc2[nH]c(=O)c(CC(=O)N[C@@H](C)c3ncc(C#N)cn3)c(C)c12 [compound 483] | –
18 | – | – | – | 100.00 | 100.00 | 100.00 | C[C@H](NC(=O)Cc1c(C(F)(F)F)c2c(C3CC3)nccc2[nH]c1=O)c1ncc(C#N)cn1 (single isomer, unassigned) [compound 3002] | –
19 | 0.21 | 1.90 | 3.67 | – | – | – | Cc1nc([C@@H](C)NC(=O)Cc2c(C)c3c(C)c(F)ccc3[nH]c2=O)ncc1C#N (single isomer, unassigned) [compound 4837] | –
20 | – | – | – | 100.00 | 48.27 | 100.00 | Cc1nccc2[nH]c(=O)c(CC(=O)N[C@@H](C)c3ccc(C#N)nn3)c(C)c12 [compound 485] | –
21 | – | – | – | 100 | 100 | 100 | Cc1nncc2[nH]c(=O)c(CC(=O)N[C@H](C)c3ccc(F)cc3F)cc12 [compound 499] | –
22 | – | – | – | 7.59 | 1.57 | 11.59 | Cc1nc(C#N)cnc1[C@@H](C)NC(=O)Cc1c(C)c2c(C)nccc2[nH]c1=O [compound 491] | –
23 | – | – | – | 100.00 | 3.13 | 100.00 | Cc1c(CC(=O)N[C@H](C)c2ccc(C#N)cn2)c(=O)[nH]c2ccc(C(F)(F)F)nc12 [compound 459] | –
24 | 2.2 | 0.29 | 1.73 | – | – | – | Cc1ccncc1[C@@H](C)NC(=O)Cc1c(C)c2cc(F)ccc2[nH]c1=O [compound 1048] | –
25 | 2.26 | 100.00 | 100.00 | – | – | – | C[C@@H](NC(=O)Cc1c(C#N)c2cc(F)ccc2[nH]c1=O)c1ncc(C#N)cc1F [compound 1094] | –
26 | 0.08 | 0.16 | 0.48 | – | – | – | N#Cc1cc(F)c2c(c1)OC[C@@H]2NC(=O)C1(c2cc3c(F)c(F)ccc3[nH]c2=O)CC1 (single isomer, unassigned) [compound 4822] | –
27 | 7.03 | 1.01 | 4.16 | – | – | – | Cc1c(CC(=O)N[C@H](C)c2ncc(C3COC3)cn2)c(=O)[nH]c2ccc(F)c(F)c12 (single isomer, unassigned) [compound 2043] | –
28 | – | – | – | 100.00 | 100.00 | 100.00 | Cc1nccc2[nH]c(=O)c(CC(=O)N[C@H](C)c3cccc(O)c3)c(C)c12 (single isomer, unassigned) [compound 330] | –
29 | 0.24 | 0.72 | 1.57 | – | – | – | Cc1c(CC(=O)N[C@H](C)c2ccc(C#N)cn2)c(=O)[nH]c2ccc(F)cc12 [compound 1127] | –
30 | – | – | – | 47.72 | 100.00 | 100.00 | Cc1nc(C#N)ncc1[C@H](C)NC(=O)Cc1c(C)c2c(C)nccc2[nH]c1=O [compound 465] | –
31 | 0.27 | 100.00 | 100.00 | – | – | – | Cc1c(C2(C(=O)N[C@@H]3CCc4cc(C#N)cnc43)CC2)c(=O)[nH]c2ccc(F)c(F)c12 (single isomer, unassigned) [compound 4803] | –

Source: patent publication US12448369B2 (Edgewise Therapeutics, Inc., priority 2023, dated 2025)
